Assay results reported in ChEMBL document CHEMBL4706588, “Rational design and biological evaluation of a new class of thiazolopyridyl tetrahydroacridines as cholinesterase and GSK-3 dual inhibitors for Alzheimer's disease” (Eur J Med Chem, 2020).
Active and inactive are the calls of the source. The rule behind the calls is not given here.

Columns and labels:
[1] = biological target: T1, Dual specificity tyrosine-phosphorylation-regulated kinase 1A (Homo sapiens, UniProt Q13627); assay: Inhibition of DYRK1alpha (unknown origin) at 300 nM relative to control
[2] = biological target: Cyclin-dependent kinase 4 (Homo sapiens) (UniProt P11802); assay: Inhibition of CDK4 (unknown origin) at 300 nM relative to control
[3] = biological target: Mitogen-activated protein kinase 10 (Homo sapiens) (UniProt P53779); assay: Inhibition of JNK3 (unknown origin) at 300 nM relative to control
[4] = Effect on swimming speed in ICR mouse model of scopolamine-induced memory impairment at 15 mg/kg, po administered 30 mins prior to scopolamine injection by Morris water maze test; type: ADME, organism-based; settings: in vivo, 0.5 h
[5] = species on record: Homo sapiens; assay: Selectivity for GSK3 (unknown origin) over CDK1 (unknown origin)
[6] = species on record: Homo sapiens; assay: Selectivity for GSK3 (unknown origin) over CDK4 (unknown origin)
[7] = biological target: Mitogen-activated protein kinase 12 (Homo sapiens) (UniProt P53778); assay: Inhibition of P38gamma (unknown origin) at 300 nM relative to control
[8] = biological target: T1, Dual specificity tyrosine-phosphorylation-regulated kinase 1A; assay: Inhibition of DYRK1alpha (unknown origin)
[9] = biological target: Glycogen synthase kinase-3 alpha (Homo sapiens) (UniProt P49840); assay: Inhibition of GSK-3alpha (unknown origin) at 300 nM relative to control
[10] = species on record: Homo sapiens; assay: Selectivity for GSK3 (unknown origin) over CDK7 (unknown origin)
[11] = biological target: T2, Glycogen synthase kinase-3 beta (Homo sapiens, UniProt P49841); assay: biochemical
Target sequence in this assay (P49841 whole entry): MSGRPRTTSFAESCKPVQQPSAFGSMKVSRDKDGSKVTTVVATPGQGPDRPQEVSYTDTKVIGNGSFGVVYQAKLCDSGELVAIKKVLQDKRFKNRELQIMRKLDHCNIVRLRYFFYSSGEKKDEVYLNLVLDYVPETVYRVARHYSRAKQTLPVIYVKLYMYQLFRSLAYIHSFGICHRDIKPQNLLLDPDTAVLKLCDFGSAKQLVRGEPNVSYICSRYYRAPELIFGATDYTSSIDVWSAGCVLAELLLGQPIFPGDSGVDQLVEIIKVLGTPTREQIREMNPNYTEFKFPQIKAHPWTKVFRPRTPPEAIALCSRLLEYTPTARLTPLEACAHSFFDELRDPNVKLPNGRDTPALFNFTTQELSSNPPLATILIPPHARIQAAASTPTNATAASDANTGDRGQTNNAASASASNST
Description: Inhibition of recombinant human N-terminal His6-tagged GSK-3beta H350L mutant expressed in baculovirus infected Sf21 cells using GSM as substrate incubated for 30 mins in presence of ATP by kinase-glo luminescence assay

[12] = Effect on cell morphology in LPS-treated mouse BV-2 cells at 5 uM pretreated for 1 hr followed by incubation with LPS for 24 hrs by fluorescence microscopic analysis; type: ADME; settings: bv-2, 25 h
[13] = in vitro; settings: PAMPA
Description: Effective permeability of compound at 100 ug/ml incubated for 20 hrs by PAMPA-BBB assay

[14] = species on record: Homo sapiens; assay: Selectivity for GSK3 (unknown origin) over CDK6 (unknown origin)
[15] = biological target: Acetylcholinesterase (Homo sapiens, UniProt P22303); assay: Inhibition of human AChE using acetylthiocholine iodide as substrate preincubated with enzyme for 1 min followed by substrate addition and measured after 10 mins by Ellman's method
[16] = species on record: Homo sapiens; assay: Selectivity for GSK3 (unknown origin) over MAPK p38 beta (unknown origin)
[17] = species on record: Homo sapiens; assay: Selectivity for GSK3 (unknown origin) over MAPK p38 alpha (unknown origin)
[18] = species on record: Homo sapiens; assay: Selectivity for GSK3 (unknown origin) over JNK2 (unknown origin)
[19] = biological target: Cholinesterase (Homo sapiens, UniProt P06276); assay: Inhibition of human BuChE using butyrylthiocholine iodide as substrate preincubated with enzyme for 1 min followed by substrate addition and measured after 10 mins by Ellman's method
[20] = species on record: Homo sapiens; assay: Selectivity for GSK3 (unknown origin) over JNK3 (unknown origin)
[21] = species on record: Homo sapiens; assay: Selectivity for GSK3 (unknown origin) over MAPK p38 gamma (unknown origin)
[22] = biological target: Cyclin-dependent kinase 2 (Homo sapiens) (UniProt P24941); assay: Inhibition of CDK2 (unknown origin) at 300 nM relative to control
[23] = biological target: T3, Dual specificity tyrosine-phosphorylation-regulated kinase 1B (Homo sapiens, UniProt Q9Y463); assay: Inhibition of DYRK1beta (unknown origin) at 300 nM relative to control
Target sequence in this assay (Q9Y463 whole entry, looked up): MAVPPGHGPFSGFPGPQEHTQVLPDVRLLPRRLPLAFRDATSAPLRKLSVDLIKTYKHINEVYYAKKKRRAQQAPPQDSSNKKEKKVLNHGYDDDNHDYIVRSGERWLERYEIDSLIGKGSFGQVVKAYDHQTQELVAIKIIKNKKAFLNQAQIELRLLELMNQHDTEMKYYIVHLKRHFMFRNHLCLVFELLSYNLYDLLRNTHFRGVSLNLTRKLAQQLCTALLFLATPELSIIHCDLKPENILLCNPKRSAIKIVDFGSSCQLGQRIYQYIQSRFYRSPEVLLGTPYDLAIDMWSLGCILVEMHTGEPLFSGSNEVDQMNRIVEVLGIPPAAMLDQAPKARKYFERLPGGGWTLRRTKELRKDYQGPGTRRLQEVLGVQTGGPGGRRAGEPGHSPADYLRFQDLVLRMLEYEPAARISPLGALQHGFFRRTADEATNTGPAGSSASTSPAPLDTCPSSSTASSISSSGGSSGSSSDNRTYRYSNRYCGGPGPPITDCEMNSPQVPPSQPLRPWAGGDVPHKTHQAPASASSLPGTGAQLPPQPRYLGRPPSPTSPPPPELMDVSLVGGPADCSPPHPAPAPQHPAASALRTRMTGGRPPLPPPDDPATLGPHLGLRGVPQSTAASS

[24] = test system: BV-2; assay: Inhibition of LPS-induced ROS production in mouse BV-2 cells at 5 uM incubated for 1 hr followed by LPS stimulation and measured after 24 hrs by DCFH-DA staining based inverted fluorescence microscopic analysis; type: functional, cell-based; settings: time 25.0 hrs
[25] = test system: Mus musculus; assay: Cognitive enhancing effect in ICR mouse model of scopolamine-induced memory impairment assessed as improvement in trajectories to platform at 15 mg/kg, po administered 30 mins prior to scopolamine injection by Morris water maze test; type: functional, organism-based
[26] = biological target: Glycogen synthase kinase-3 beta (Mus musculus) (UniProt Q9WV60); assay: Inhibition of GSK3beta in mouse N2a cells overexpressing human tau protein assessed as reduction in tau Ser396 residue phosphorylation at 5 uM incubated for 1 hr followed by okadaid-acid addition and measured after 5 hrs by Western blot analysis relative to control; type: cell-based; settings: time 6.0 hrs
[27] = biological target: Mitogen-activated protein kinase 3 (Homo sapiens) (UniProt P27361); assay: Inhibition of ERK1 (unknown origin) at 300 nM relative to control
[28] = biological target: T2, Glycogen synthase kinase-3 beta; assay: Inhibition of GSK-3beta (unknown origin) at 300 nM relative to control
Target sequence in this assay (P49841 whole entry, looked up): as the sequence (P49841 whole entry) above

[29] = test system: N2a; assay: Effect on tau protein expression in mouse N2a cells transfected with human tau protein at 5 to 15 uM incubated for 1 hr followed by okadaid-acid addition and measured after 5 hrs by Western blot analysis; type: functional, cell-based; settings: dose 5-15 µM, time 6.0 hrs
[30] = biological target: T3, Dual specificity tyrosine-phosphorylation-regulated kinase 1B; assay: Inhibition of DYRK1beta (unknown origin)
Target sequence in this assay (Q9Y463 whole entry): as the sequence (Q9Y463 whole entry, looked up) above

[31] = species on record: Homo sapiens; assay: Selectivity for GSK3 (unknown origin) over CDK2 (unknown origin)
[32] = species on record: Homo sapiens; assay: Selectivity for GSK3 (unknown origin) over MAPK p38 delta (unknown origin)
[33] = biological target: Mitogen-activated protein kinase 14 (Homo sapiens) (UniProt Q16539); assay: Inhibition of P38alpha (unknown origin) at 300 nM relative to control
[34] = biological target: Mitogen-activated protein kinase 13 (Homo sapiens) (UniProt O15264); assay: Inhibition of P38delta (unknown origin) at 300 nM relative to control
[35] = species on record: Homo sapiens; assay: Selectivity for GSK3 (unknown origin) over ERK2 (unknown origin)
[36] = biological target: Mitogen-activated protein kinase 9 (Homo sapiens) (UniProt P45984); assay: Inhibition of JNK2 (unknown origin) at 300 nM relative to control
[37] = biological target: Glycogen synthase kinase-3 beta (Mus musculus) (UniProt Q9WV60); assay: Inhibition of GSK3beta in mouse N2a cells overexpressing human tau protein assessed as phosphorylated tau Ser396 residue level at 15 uM incubated for 1 hr followed by okadaid-acid addition and measured after 5 hrs by Western blot analysis relative to control; type: cell-based; parameters: scale not given: the % may be the effect or the level left; settings: time 6.0 hrs
[38] = species on record: Homo sapiens; assay: Selectivity for GSK3 (unknown origin) over CDK9 (unknown origin)
[39] = biological target: Glycogen synthase kinase-3 beta (Mus musculus) (UniProt Q9WV60); assay: Inhibition of GSK3beta in mouse N2a cells overexpressing human tau protein assessed as phosphorylated tau Ser396 residue level at 10 uM incubated for 1 hr followed by okadaid-acid addition and measured after 5 hrs by Western blot analysis relative to control; type: cell-based; parameters: scale not given: the % may be the effect or the level left; settings: time 6.0 hrs
[40] = biological target: Mitogen-activated protein kinase 1 (Homo sapiens) (UniProt P28482); assay: Inhibition of ERK2 (unknown origin) at 300 nM relative to control
[41] = species on record: Homo sapiens; assay: Selectivity for GSK3 (unknown origin) over ERK1 (unknown origin)

Chain of Glycogen synthase kinase-3 beta (Mus musculus) (Q9WV60 whole entry, looked up): as the sequence (P49841 whole entry) above, with T390P, T392A, A400T, T402A counted along it
Chain of Cyclin-dependent kinase 4 (Homo sapiens) (P11802 whole entry): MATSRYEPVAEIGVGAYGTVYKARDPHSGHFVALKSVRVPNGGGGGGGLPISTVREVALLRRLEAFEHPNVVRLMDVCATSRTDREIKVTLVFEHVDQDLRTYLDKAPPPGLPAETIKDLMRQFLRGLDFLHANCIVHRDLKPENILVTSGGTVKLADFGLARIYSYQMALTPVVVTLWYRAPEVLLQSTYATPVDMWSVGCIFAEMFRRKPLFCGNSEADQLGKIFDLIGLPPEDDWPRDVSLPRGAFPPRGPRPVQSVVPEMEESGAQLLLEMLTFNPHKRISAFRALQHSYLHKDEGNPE
Chain of Cholinesterase (P06276 whole entry): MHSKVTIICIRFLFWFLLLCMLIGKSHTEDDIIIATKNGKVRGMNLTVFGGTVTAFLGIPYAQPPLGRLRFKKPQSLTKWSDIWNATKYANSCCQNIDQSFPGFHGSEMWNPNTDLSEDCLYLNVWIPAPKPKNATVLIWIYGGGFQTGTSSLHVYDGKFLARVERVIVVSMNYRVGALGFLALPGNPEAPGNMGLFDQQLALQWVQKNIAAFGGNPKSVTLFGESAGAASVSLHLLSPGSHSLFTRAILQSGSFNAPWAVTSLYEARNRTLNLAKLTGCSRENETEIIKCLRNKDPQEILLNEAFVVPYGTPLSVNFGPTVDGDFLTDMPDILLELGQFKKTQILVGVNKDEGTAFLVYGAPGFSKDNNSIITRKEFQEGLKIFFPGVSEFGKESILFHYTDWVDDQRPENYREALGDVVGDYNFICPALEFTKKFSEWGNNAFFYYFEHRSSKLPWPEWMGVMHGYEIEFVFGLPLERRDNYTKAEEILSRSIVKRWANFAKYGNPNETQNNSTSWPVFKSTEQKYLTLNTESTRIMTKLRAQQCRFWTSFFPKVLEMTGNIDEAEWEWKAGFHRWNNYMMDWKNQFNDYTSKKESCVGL
Chain of Mitogen-activated protein kinase 9 (Homo sapiens) (P45984 whole entry, looked up): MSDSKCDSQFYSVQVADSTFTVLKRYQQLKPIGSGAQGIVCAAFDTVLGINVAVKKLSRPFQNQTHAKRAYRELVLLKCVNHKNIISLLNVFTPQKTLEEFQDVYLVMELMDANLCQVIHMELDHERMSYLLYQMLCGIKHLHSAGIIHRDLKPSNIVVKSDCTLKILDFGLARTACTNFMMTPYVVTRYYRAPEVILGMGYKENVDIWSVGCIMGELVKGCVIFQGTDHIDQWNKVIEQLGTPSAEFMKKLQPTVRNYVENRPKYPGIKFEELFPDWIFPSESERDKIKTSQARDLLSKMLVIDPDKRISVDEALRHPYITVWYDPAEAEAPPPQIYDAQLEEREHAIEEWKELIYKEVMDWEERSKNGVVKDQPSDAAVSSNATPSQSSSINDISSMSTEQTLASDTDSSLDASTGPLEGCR
Chain of Mitogen-activated protein kinase 1 (Homo sapiens) (P28482 whole entry): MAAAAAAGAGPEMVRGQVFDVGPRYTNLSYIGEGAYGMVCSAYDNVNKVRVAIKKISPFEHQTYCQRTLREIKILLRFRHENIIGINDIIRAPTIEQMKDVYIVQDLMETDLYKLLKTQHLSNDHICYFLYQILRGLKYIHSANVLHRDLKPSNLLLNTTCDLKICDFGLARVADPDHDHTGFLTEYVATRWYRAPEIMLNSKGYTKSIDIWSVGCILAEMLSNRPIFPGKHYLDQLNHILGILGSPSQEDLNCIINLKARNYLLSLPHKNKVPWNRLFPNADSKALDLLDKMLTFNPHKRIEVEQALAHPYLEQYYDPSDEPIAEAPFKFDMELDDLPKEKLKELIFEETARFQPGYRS
Chain of Mitogen-activated protein kinase 14 (Homo sapiens) (Q16539 whole entry): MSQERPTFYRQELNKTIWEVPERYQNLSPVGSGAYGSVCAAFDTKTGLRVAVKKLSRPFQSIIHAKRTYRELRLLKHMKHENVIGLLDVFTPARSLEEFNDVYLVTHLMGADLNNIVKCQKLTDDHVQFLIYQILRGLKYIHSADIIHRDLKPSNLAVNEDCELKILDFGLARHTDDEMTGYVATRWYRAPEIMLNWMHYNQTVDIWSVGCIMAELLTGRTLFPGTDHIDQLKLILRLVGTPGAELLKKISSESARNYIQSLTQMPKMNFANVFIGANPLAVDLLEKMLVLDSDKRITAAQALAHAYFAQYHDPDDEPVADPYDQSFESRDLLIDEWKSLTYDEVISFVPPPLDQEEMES
Chain of Glycogen synthase kinase-3 alpha (Homo sapiens) (P49840 2-483 limits assumed): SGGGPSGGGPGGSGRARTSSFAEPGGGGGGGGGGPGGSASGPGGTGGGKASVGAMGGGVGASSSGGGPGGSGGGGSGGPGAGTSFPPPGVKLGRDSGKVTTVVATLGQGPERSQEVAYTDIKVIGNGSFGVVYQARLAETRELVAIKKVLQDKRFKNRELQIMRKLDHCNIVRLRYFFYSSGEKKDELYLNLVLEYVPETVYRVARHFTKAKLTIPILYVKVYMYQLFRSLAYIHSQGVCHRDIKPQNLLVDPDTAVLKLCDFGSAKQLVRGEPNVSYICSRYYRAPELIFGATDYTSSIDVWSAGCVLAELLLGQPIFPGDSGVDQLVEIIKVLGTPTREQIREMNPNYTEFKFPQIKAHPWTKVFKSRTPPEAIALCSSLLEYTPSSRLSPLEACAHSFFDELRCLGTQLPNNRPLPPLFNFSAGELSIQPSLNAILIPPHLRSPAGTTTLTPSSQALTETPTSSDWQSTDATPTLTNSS
Chain of Acetylcholinesterase (P22303 whole entry): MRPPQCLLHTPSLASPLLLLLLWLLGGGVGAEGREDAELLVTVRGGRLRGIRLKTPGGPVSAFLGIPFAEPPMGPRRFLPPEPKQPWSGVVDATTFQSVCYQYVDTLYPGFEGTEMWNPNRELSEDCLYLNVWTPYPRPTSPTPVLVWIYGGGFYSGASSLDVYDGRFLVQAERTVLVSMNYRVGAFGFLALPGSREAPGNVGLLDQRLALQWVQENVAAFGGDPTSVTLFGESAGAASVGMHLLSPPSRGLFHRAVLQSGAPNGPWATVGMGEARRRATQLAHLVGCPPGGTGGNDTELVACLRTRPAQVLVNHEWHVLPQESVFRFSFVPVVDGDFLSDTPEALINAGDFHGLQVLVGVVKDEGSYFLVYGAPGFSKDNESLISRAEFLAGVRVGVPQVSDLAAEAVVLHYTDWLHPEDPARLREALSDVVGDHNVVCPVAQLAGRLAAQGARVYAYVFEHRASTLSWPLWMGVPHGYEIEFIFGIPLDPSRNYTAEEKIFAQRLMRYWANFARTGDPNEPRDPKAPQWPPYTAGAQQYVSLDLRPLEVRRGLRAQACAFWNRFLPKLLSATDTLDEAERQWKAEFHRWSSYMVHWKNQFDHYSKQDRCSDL

CNC(=O)c1sc(-c2ccnc(NC(=O)CNCCNc3c4c(nc5ccccc35)CCCC4)c2)nc1OCC1CC1
inhibition [1]: 83.7%
inhibition [2]: 3.07%
inhibition [3]: 16.7%
Activity [4]: Non-Toxic
Selectivity ratio [5]: 100
Selectivity ratio [6]: 100
inhibition [7]: 7.64%
IC50 [8]: 28.3 nM
inhibition [9]: 91.1%
Selectivity ratio [10]: 100
IC50 [11]: 22 nM
Activity [12]: Non-Toxic
Papp at 20 h, 100 ug/ml [13]: 6.9 ×10⁻⁶ cm/s
Selectivity ratio [14]: 100
IC50 [15]: 1.2 nM
Selectivity ratio [16]: 100
Selectivity ratio [17]: 100
Selectivity ratio [18]: 100
IC50 [19]: 150 nM
Selectivity ratio [20]: 100
Selectivity ratio [21]: 100
inhibition [22]: 3.8%
inhibition [23]: 67.9%
inhibition [24]: Active
Activity [25]: Active
inhibition [26]: 49%
inhibition [27]: 13.1%
inhibition [28]: 86.3%
Activity [29]: inactive
IC50 [30]: 120 nM
Selectivity ratio [31]: 100
Selectivity ratio [32]: 100
inhibition [33]: 5.21%
inhibition [34]: 20.6%
Selectivity ratio [35]: 100
inhibition [36]: 29.8%
Activity [37]: 17%
Selectivity ratio [38]: 100
Activity [39]: 25.8%
inhibition [40]: 9.78%
Selectivity ratio [41]: 100
